Experimental data taken from patent publication US10798941B2, “Microbiocidal oxadiazole derivatives” (SYNGENTA PARTICIPATIONS AG, priority 2016, dated 2020).

Each compound was assayed on Glomerella Lagenarium (Colletotrichum Lagenarium) (assay: Glomerella lagenarium (Colletotrichum lagenarium) liquid culture / cucumber / preventative (anthracnose)). Details: Colletotrichum orbiculare; 20 ppm in the applied formulation; liquid culture in PDB, 24° C., inhibition of growth measured photometrically 3 to 4 days after application, vs untreated; read-out: disease control.
Format: cell-based
Experimental: Mycelia fragments or conidia suspensions of a fungus prepared either freshly from liquid cultures of the fungus or from cryogenic storage, are directly mixed into nutrient broth. DMSO solutions of the test compound (max. 10 mg/ml) are diluted with 0.025% Tween20 by a factor of 50 and 10 μl of this solution is pipetted into a microtiter plate (96-well format). The nutrient broth containing the fungal spores/mycelia fragments is then added to give an end concentration of the tested compound. The test plates are incubated in the dark at 24° C. and 96% relative humidity. The inhibition of fungal growth is determined photometrically after 2 to 7 days, depending on the pathosystem, and percent antifungal activity relative to the untreated check is calculated.
Conidia of the fungus from cryogenic storage are directly mixed into nutrient broth (PDB—potato dextrose broth). After placing a (DMSO) solution of test compound into a microtiter plate (96-well format), the nutrient broth containing the fungal spores is added.
The following compounds at 20 ppm in the applied formulation give at least 80% disease control in this test when compared to untreated control under the same conditions, which show extensive disease development.

| Compound | inhibition of growth at 20 ppm |
| --- | --- |
| COc1cc(-c2noc(C(F)(F)F)n2)ccc1Cn1cncc1Br [Compound 1.116, 3-[4-[(5-bromoimidazol-1-yl)methyl]-3-methoxy-phenyl]-5-(trifluoromethyl)-1,2,4-oxadiazole] | ≥ 80% |
| COc1cc(-c2noc(C(F)(F)F)n2)ccc1Cn1cnc(Br)c1 [Compound 1.117, 3-[4-[(4-bromoimidazol-1-yl)methyl]-3-methoxy-phenyl]-5-(trifluoromethyl)-1,2,4-oxadiazole] | ≥ 80% |
| COC(=O)c1cc(C(F)(F)F)n(Cc2ccc(-c3noc(C(F)(F)F)n3)cc2)c1C [Compound 1.68, methyl 2-methyl-5-(trifluoromethyl)-1-[[4-[5-(trifluoromethyl)-1,2,4-oxadiazol-3-yl]phenyl]methyl]pyrrole-3-carboxylate] | ≥ 80% |
| Cc1ccc2c(C=O)cn(Cc3ccc(-c4noc(C(F)(F)F)n4)cc3)c2c1 [Compound 1.51, 6-methyl-1-[[4-[5-(trifluoromethyl)-1,2,4-oxadiazol-3-yl]phenyl]methyl]indole-3-carbaldehyde] | ≥ 80% |
| COC(=O)c1cccc2c1ccn2Cc1ccc(-c2noc(C(F)(F)F)n2)cc1 [Compound 1.66, methyl 1-[[4-[5-(trifluoromethyl)-1,2,4-oxadiazol-3-yl]phenyl]methyl]indole-4-carboxylate] | ≥ 80% |
| Cc1cc(C)n(Cc2ccc(-c3noc(C(F)(F)F)n3)cn2)n1 [Compound 1.140, 3-[6-[(3,5-dimethylpyrazol-1-yl)methyl]-3-pyridyl]-5-(trifluoromethyl)-1,2,4-oxadiazole] | ≥ 80% |
| FC(F)(F)c1nc(-c2ccc(Cn3cncn3)c(C(F)(F)F)c2)no1 [Compound 1.98, 3-[4-(1,2,4-triazol-1-ylmethyl)-3-(trifluoromethyl)phenyl]-5-(trifluoromethyl)-1,2,4-oxadiazole] | ≥ 80% |
| Cc1cc(C)n(CCc2ccc(-c3noc(C(F)(F)F)n3)cc2)n1 [Compound 1.309, 3-[4-[2-(3,5-dimethylpyrazol-1-yl)ethyl]phenyl]-5-(trifluoromethyl)-1,2,4-oxadiazole] | ≥ 80% |
| Cc1cc(C)n(Cc2ccc(-c3noc(C(F)(F)F)n3)nc2)n1 [Compound 1.284, 3-[5-[(3,5-dimethylpyrazol-1-yl)methyl]-2-pyridyl]-5-(trifluoromethyl)-1,2,4-oxadiazole] | ≥ 80% |
| FC(F)(F)c1nc(-c2ccc(Cn3cnc(Br)c3)c(C(F)(F)F)c2)no1 [Compound 1.103, 3-[4-[(4-bromoimidazol-1-yl)methyl]-3-(trifluoromethyl)phenyl]-5-(trifluoromethyl)-1,2,4-oxadiazole] | ≥ 80% |
| Cc1nc2cc(C(F)(F)F)ccc2n1Cc1ccc(-c2noc(C(F)(F)F)n2)cc1 [Compound 1.191, 3-[4-[[2-methyl-5-(trifluoromethyl)benzimidazol-1-yl]methyl]phenyl]-5-(trifluoromethyl)-1,2,4-oxadiazole] | ≥ 80% |
| FC(F)(F)c1nc(-c2ccc(Cn3nnnc3-c3ccc(Cl)cc3)c(Cl)c2)no1 [Compound 1.113, 3-[3-chloro-4-[[5-(4-chlorophenyl)tetrazol-1-yl]methyl]phenyl]-5-(trifluoromethyl)-1,2,4-oxadiazole] | ≥ 80% |
| COC(=O)c1ncn(Cc2ccc(-c3noc(C(F)(F)F)n3)cc2Cl)c1C(=O)OC [Compound 1.104, dimethyl 1-[[2-chloro-4-[5-(trifluoromethyl)-1,2,4-oxadiazol-3-yl]phenyl]methyl]imidazole-4,5-dicarboxylate] | ≥ 80% |
| Cc1c(C=O)c2ccccc2n1Cc1ccc(-c2noc(C(F)(F)F)n2)cc1 [Compound 1.70, 2-methyl-1-[[4-[5-(trifluoromethyl)-1,2,4-oxadiazol-3-yl]phenyl]methyl]indole-3-carbaldehyde] | ≥ 80% |
| Fc1cc(-c2noc(C(F)(F)F)n2)ccc1Cn1nnnc1-c1ccc(Cl)cc1 [Compound 1.130, 3-[4-[[5-(4-chlorophenyl)tetrazol-1-yl)methyl]-3-fluoro-phenyl]-5-(trifluoromethyl)-1,2,4-oxadiazole] | ≥ 80% |
| Cc1nn(Cc2ccc(-c3noc(C(F)(F)F)n3)cc2F)c(C)c1Cl [Compound 1.127, 3-[4-[(4-chloro-3,5-dimethyl-pyrazol-1-yl)methyl]-3-fluoro-phenyl]-5-(trifluoromethyl)-1,2,4-oxadiazole] | ≥ 80% |
| FC(F)(F)c1nc(-c2ccc(Cn3ccc4ccc(Cl)cc43)cc2)no1 [Compound 1.64, 3-[4-[(6-chloroindol-1-yl)methyl]phenyl]-5-(trifluoromethyl)-1,2,4-oxadiazole] | ≥ 80% |
| CCOC(=O)c1nn(Cc2ccc(-c3noc(C(F)(F)F)n3)cc2)cc1-c1ccccc1 [Compound 1.84, ethyl 4-phenyl-1-[[4-[5-(trifluoromethyl) 1,2,4-oxadiazol-3-yl]phenyl]methyl]pyrazole-3-carboxylate] | ≥ 80% |
| N#Cc1ncn(Cc2ccc(-c3noc(C(F)(F)F)n3)cc2Cl)c1C#N [Compound 1.106, 1-[[2-chloro-4-[5-(trifluoromethyl)-1,2,4-oxadiazol-3-yl]phenyl]methyl]imidazole-4,5-dicarbonitrile] | ≥ 80% |
| CCOC(=O)c1c(-c2ccccc2)ncn1Cc1ccc(-c2noc(C(F)(F)F)n2)cc1 [Compound 1.189, ethyl 5-phenyl-3-[[4-[5-(trifluoromethyl)-1,2,4-oxadiazol-3-yl]phenyl]methyl]imidazole-4-carboxylate] | ≥ 80% |
| COC(=O)c1ncn(Cc2ccc(-c3noc(C(F)(F)F)n3)cn2)n1 [Compound 1.138, methyl 1-[[5-[5-(trifluoromethyl)-1,2,4-oxadiazol-3-yl]-2-pyridyl]methyl]-1,2,4-triazole-3-carboxylate] | ≥ 80% |
| Cc1cc(C)n(Cc2ccc(-c3noc(C(F)(F)F)n3)cc2Cl)n1 [Compound 1.100, 3-[3-chloro-4-[(3,5-dimethylpyrazol-1-yl)methyl]phenyl]-5-(trifluoromethyl)-1,2,4-oxadiazole] | ≥ 80% |
| CCOC(=O)c1ncn(Cc2ccc(-c3noc(C(F)(F)F)n3)cc2)c1-c1ccccc1 [Compound 1.188, ethyl 5-phenyl-1-[[4-[5-(trifluoromethyl)-1,2,4-oxadiazol-3-yl]phenyl]methyl]imidazole-4-carboxylate] | ≥ 80% |
| FC(F)(F)c1nc(-c2ccc(Cn3cnc4ccccc43)c(Cl)c2)no1 [Compound 1.110, 3-[4-(benzimidazol-1-ylmethyl)-3-chloro-phenyl]-5-(trifluoromethyl)-1,2,4-oxadiazole] | ≥ 80% |
| FC(F)(F)c1nc(-c2ccc(Cn3c(Br)nc(Br)c3Br)cc2)no1 [Compound 1.69, 3-[4-[(2,4,5-tribromoimidazol-1-yl)methyl]phenyl]-5-(trifluoromethyl)-1,2,4-oxadiazole] | ≥ 80% |
| FC(F)(F)c1nc(-c2ccc(Cn3cc(Br)cn3)c(Cl)c2)no1 [Compound 1.115, 3-[4-[(4-bromopyrazol-1-yl)methyl]-3-chloro-phenyl]-5-(trifluoromethyl)-1,2,4-oxadiazole] | ≥ 80% |
